# Experiments:
# [1] = biological target: Cyclin-dependent kinase 4 (Homo sapiens, UniProt P11802); assay: Inhibition of human Cyclin-dependent kinase 4
# TGF-beta receptor type-2 = TGF-beta receptor type-2 (Homo sapiens, UniProt P37173); assay: Inhibition of human TGF-beta type II receptor
# Rattus norvegicus [2] = assay: In vivo glucose reduction in rats at 10 mg/kg dose; type: functional; design: scale not given: the % may be the effect or the level left
# [3] = biological target: RAC-alpha serine/threonine-protein kinase (Homo sapiens, UniProt P31749); assay: Inhibition of human Akt1
# [4] = biological target: Cyclin-dependent kinase 2 (Homo sapiens, UniProt P24941); assay: Inhibition of human Cyclin-dependent kinase 2
# Rattus norvegicus [5] = assay: In vivo insulin (10 units) response in rats at 10 mg/kg dose; type: functional
# [6] = biological target: T1, Glycogen synthase kinase-3 beta (Homo sapiens, UniProt P49841)
# Description: Inhibition of human Glycogen synthase kinase-3 beta
# [7] = biological target: Vascular endothelial growth factor receptor 2 (Homo sapiens, UniProt P35968); assay: Inhibition of human Vascular endothelial growth factor receptor 2
# [8] = biological target: Protein kinase C beta type (Homo sapiens, UniProt P05771); assay: Inhibition of human Protein kinase C beta 2
# [9] = biological target: T1, Glycogen synthase kinase-3 beta; assay: Inhibition of Glycogen synthase kinase-3 beta dependent Tau protein serine-396 phosphorylation in human SY5Y cells; type: functional, cell-based
# [10] = biological target: Mitogen-activated protein kinase kinase kinase 20 (Homo sapiens, UniProt Q9NYL2)
# [11] = biological target: cAMP-dependent protein kinase catalytic subunit beta (Homo sapiens, UniProt P22694); assay: Inhibition of human Protein kinase A beta
# MAP kinase p38 = MAP kinase p38 (Homo sapiens, UniProt O15264+Q15759+Q16539+P53778); assay: Inhibition of human Mitogen-activated protein kinase p38
# [12] = Compound was tested for in vivo clearance; type: ADME, organism-based; conditions: rat
# Rattus norvegicus [13] = organism: Rattus norvegicus; assay: Threshold minimal effective dose in rats; type: functional
# [14] = Half life in in vivo, hours; type: ADME, organism-based; conditions: rat
# [15] = Half life in oral, hours; type: ADME, organism-based; conditions: rat, in vivo
# [16] = Oral bioavailability; type: ADME, organism-based; conditions: rat, in vivo
# [17] = Compound was tested for volume distribution; type: ADME; conditions: rat; read-out: Volume distribution
# [18] = Compound was tested for oral AUC at 0 to 24 hours; type: ADME; design: time < 24 hr, route oral; conditions: rat
# Chain of Vascular endothelial growth factor receptor 2 (P35968 whole entry): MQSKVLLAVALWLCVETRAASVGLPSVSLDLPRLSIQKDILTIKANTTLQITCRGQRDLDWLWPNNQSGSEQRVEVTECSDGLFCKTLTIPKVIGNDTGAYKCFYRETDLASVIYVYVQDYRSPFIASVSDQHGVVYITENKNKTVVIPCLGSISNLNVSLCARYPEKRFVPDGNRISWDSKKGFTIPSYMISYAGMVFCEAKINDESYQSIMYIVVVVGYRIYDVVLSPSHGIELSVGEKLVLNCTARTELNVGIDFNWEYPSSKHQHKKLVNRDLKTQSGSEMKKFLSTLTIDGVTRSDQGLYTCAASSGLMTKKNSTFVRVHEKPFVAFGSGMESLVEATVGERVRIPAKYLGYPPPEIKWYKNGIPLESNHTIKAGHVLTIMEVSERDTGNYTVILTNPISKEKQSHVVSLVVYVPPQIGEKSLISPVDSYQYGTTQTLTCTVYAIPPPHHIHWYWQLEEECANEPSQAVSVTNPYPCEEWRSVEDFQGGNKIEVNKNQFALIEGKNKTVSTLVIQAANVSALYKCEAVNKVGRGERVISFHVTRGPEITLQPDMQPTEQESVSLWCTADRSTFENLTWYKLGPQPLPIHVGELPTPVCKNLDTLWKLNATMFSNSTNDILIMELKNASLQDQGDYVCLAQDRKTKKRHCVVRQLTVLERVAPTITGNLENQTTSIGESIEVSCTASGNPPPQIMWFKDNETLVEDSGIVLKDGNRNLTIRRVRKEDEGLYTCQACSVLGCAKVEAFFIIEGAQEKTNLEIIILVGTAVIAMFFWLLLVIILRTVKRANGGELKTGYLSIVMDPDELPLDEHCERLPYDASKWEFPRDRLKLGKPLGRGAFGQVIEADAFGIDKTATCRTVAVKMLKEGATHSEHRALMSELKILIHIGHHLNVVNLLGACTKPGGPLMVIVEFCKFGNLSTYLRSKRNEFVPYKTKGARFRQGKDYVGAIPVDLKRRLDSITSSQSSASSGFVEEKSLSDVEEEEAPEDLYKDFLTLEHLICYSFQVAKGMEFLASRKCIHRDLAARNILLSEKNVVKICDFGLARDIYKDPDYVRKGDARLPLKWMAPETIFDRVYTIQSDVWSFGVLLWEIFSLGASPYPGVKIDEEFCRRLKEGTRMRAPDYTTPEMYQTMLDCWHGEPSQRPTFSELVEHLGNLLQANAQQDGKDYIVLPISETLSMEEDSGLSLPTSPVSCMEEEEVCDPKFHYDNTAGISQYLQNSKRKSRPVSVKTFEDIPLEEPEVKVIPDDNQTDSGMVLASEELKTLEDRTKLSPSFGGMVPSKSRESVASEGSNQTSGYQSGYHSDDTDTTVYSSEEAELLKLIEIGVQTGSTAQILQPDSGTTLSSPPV
# Chain of Protein kinase C beta type (P05771 whole entry): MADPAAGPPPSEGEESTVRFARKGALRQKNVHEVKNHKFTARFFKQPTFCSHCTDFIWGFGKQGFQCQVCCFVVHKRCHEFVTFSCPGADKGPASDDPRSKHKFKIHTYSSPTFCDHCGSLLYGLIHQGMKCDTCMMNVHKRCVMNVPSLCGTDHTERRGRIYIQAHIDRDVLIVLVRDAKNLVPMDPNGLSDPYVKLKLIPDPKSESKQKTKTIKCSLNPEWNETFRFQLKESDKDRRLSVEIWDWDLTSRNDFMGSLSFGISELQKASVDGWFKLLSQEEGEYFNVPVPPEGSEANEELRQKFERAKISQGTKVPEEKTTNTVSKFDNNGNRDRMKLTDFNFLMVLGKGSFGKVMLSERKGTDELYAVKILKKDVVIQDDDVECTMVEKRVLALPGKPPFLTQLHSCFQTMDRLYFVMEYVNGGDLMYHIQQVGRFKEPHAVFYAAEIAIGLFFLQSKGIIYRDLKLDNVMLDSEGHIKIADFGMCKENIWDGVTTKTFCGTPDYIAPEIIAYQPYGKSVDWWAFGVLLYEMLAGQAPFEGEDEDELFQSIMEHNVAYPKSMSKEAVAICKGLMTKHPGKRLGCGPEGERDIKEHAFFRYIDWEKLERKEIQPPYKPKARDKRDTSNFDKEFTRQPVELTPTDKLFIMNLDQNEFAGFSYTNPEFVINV
# T1 sequence (P49841 whole entry): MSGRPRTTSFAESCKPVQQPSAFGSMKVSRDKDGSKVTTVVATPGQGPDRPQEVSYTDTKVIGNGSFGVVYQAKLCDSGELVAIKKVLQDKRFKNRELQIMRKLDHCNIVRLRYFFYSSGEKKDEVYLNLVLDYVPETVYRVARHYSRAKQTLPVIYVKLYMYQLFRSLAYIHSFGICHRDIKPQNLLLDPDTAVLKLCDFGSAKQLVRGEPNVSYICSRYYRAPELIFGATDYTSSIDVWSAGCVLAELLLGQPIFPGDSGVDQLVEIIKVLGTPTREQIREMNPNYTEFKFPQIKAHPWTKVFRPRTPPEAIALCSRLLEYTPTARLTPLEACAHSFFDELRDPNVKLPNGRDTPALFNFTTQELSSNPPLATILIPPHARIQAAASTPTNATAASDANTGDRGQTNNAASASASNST
# Chain of Cyclin-dependent kinase 4 (P11802 whole entry): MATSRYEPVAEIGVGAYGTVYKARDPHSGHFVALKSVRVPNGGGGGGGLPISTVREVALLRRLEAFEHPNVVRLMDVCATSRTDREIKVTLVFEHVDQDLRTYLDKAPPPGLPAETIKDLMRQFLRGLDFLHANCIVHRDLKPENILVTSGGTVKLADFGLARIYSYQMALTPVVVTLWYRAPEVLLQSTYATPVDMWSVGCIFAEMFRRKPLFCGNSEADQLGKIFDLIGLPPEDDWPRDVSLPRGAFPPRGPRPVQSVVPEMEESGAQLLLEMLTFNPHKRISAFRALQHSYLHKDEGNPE
# Chain of TGF-beta receptor type-2 (P37173 whole entry): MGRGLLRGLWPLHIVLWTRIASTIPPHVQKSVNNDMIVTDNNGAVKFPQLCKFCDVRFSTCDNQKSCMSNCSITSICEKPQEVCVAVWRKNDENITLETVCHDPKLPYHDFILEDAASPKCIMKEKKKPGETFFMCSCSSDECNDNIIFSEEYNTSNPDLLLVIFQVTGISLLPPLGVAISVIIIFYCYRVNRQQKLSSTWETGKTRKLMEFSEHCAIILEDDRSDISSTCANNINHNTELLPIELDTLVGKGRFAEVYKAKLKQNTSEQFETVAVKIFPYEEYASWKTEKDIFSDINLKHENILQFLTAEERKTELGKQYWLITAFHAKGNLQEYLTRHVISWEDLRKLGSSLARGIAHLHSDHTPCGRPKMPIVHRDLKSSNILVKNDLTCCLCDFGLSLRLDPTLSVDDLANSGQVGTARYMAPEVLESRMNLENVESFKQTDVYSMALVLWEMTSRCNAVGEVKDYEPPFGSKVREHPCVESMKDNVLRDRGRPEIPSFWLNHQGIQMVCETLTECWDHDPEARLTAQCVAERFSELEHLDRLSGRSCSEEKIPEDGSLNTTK
# Chain of RAC-alpha serine/threonine-protein kinase (P31749 whole entry): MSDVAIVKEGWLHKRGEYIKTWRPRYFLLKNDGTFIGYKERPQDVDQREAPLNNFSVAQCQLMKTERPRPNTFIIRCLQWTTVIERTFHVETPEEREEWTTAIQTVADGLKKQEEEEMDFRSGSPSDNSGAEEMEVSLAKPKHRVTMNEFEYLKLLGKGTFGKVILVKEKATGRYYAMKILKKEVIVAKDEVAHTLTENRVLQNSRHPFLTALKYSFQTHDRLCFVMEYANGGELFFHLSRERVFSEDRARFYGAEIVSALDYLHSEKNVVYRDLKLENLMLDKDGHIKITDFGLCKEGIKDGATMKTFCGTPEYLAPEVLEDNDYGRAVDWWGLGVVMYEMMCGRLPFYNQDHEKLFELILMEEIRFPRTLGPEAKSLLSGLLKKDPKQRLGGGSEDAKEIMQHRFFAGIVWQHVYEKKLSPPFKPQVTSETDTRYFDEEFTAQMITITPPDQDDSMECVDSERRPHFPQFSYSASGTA
# Chain of Mitogen-activated protein kinase kinase kinase 20 (Q9NYL2 whole entry): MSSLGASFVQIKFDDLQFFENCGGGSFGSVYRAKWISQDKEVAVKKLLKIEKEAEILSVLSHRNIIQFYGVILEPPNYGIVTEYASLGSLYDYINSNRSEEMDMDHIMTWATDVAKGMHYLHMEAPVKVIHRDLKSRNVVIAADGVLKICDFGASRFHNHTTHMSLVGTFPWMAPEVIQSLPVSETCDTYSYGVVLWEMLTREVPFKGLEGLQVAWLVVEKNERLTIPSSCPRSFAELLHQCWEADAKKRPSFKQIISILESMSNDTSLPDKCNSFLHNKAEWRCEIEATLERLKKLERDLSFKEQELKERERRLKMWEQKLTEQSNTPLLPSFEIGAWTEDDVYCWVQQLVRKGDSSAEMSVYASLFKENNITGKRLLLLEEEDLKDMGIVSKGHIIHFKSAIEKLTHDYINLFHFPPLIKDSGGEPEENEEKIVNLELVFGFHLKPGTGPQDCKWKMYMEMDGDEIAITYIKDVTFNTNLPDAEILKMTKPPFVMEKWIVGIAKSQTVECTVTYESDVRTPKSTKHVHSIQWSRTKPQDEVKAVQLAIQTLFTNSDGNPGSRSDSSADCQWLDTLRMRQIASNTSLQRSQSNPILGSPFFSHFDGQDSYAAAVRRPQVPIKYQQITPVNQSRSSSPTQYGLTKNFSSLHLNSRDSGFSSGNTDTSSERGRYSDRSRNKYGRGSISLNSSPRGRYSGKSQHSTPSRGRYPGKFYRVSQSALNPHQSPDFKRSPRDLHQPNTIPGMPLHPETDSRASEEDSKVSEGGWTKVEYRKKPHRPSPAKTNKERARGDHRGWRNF
Compound,IC50 [1],IC50 (TGF-beta receptor type-2),IC50 [3],IC50 [4],IC50 [6],IC50 [7],IC50 [8],IC50 [9],IC50 [10],IC50 [11],IC50 (MAP kinase p38),clearance [12],half-life [14],half-life [15],bioavailability [16],Vd [17],AUC [18],Activity (Rattus norvegicus [2]),Response (Rattus norvegicus [5]),TMED (Rattus norvegicus [13])
O=C1NC(=O)C(c2cnc3ccccn23)=C1c1cn2c3c(cc(F)cc13)CN(C(=O)N1CCCCC1)CC2 [LY-2090314],1800 nM,1200 nM,> 20000 nM,–,1.1 nM,–,420 nM,0.7 nM,–,> 20000 nM,–,12 mL/min/kg,1.1 h,2.8 h,23%,1 L,3550 ng·h/mL,61%,124%,1.5 mg/kg
O=C1NC(=O)C(c2cnc3ccccn23)=C1c1cn2c3c(cccc13)CN(C(=O)N1CCCCC1)CC2,4800 nM,3100 nM,> 20000 nM,5400 nM,2 nM,> 20000 nM,560 nM,1.6 nM,–,–,> 20000 nM,–,–,–,–,–,–,69%,124%,2.22 mg/kg
CC(C)OC(=O)N1CCn2cc(C3=C(c4cnc5ccccn45)C(=O)NC3=O)c3cccc(c32)C1,3300 nM,> 20000 nM,> 20000 nM,3400 nM,1.3 nM,> 20000 nM,800 nM,15 nM,> 20000 nM,> 20000 nM,–,–,–,–,–,–,–,58%,105%,4.27 mg/kg

# Molecules with a lower IC50 [1], results first:
IC50 [1],IC50 (TGF-beta receptor type-2),IC50 [3],IC50 [4],IC50 [6],IC50 [7],IC50 [8],IC50 [9],IC50 [10],IC50 [11],IC50 (MAP kinase p38),clearance [12],half-life [14],half-life [15],bioavailability [16],Vd [17],AUC [18],Compound,Activity (Rattus norvegicus [2]),Response (Rattus norvegicus [5]),TMED (Rattus norvegicus [13])
1500 nM,> 20000 nM,> 20000 nM,2100 nM,1.6 nM,> 20000 nM,1000 nM,12 nM,> 20000 nM,> 20000 nM,> 20000 nM,–,–,–,–,–,–,CN(C)C(=O)N1CCn2cc(C3=C(c4cnc5ccccn45)C(=O)NC3=O)c3cccc(c32)C1,53%,104%,–
1700 nM,2000 nM,> 20000 nM,–,1.3 nM,–,1100 nM,2.6 nM,–,> 20000 nM,–,–,–,–,–,–,–,O=C1NC(=O)C(c2cnc3ccccn23)=C1c1cn2c3c(cccc13)CN(C(=O)N1CCOCC1)CC2,78%,119%,1.44 mg/kg

# Reference: ChEMBL document CHEMBL1138659 (J Med Chem, 2004)
